Experiments:
macrophages = conditions: in vitro; cited from earlier work
cFLIP in cancer cells = conditions: cancer cells versus non-cancerous cells; cited from earlier work
[1] = tested on: J774A.1 macrophage cell line; assay: Caspase-Glo 8 caspase activity assay in J774A.1 macrophages with FasL with or without small molecule inhibitor; type: cell-based
Description: FIG. 11 provides two illustrations depicting in vitro assessment of cell behavior. (A) In Vitro Experimental Protocol: J774A.1 macrophage cell line was incubated overnight at 20,000 cells/well and treated with lipopolysaccharide (LPS) for 4 hours or 3days. Exogenous FasL was then added to initiate the extrinsic apoptotic pathway for 6 hours before caspase activity (Caspase-Glo3/7) and metabolic activity (alamarBlue) assays were performed to study the differences in cell behavior after exposure to each stimulant. (B) In Vitro Experimental Protocol for Small Molecule Testing. J774A. 1 macrophage cell line was incubated overnight at 20,000 cells/well and cultured […] for 3 days. Exogenous FasL was then added to initiate the extrinsic apoptotic pathway with or without a small molecule inhibitor for 6 hours before a caspase activity (Caspase-Glo8) assay was performed to study the differences in cell behavior after exposure. […] J774A.1 macrophage cell line was incubated overnight at 20,000 cells/well and cultured in complete media for 3 days. Exogenous FasL was then added to initiate the extrinsic apoptotic pathway with or without a small molecule inhibitor for 6 hours before a caspase activity (Caspase-Glo 8) assay was performed to study the differences in cell behavior after exposure. Lastly, tests were performed utilizing a small molecule inhibitor (YM155) of CFLIP. […]

In the case of `COCCn1c2c([n+](Cc3cnccn3)c1C)C(=O)c1ccccc1C2=O` [YM155], the “effect on anti-apoptotic programming in macrophages” value (macrophages) is listed as “reversed anti-apoptotic programming in macrophages in vitro”, the “cFLIP inhibition in cancer cells and induction of their death” value (cFLIP in cancer cells) is listed as “inhibited cFLIP in cancer cells and induced their death without affecting non-cancerous cells” and the “fold change in caspase 8 activity relative to untreated control” value ([1]; 100 ng/mL small molecule, FasL 6 hours, J774A.1 cells cultured 3 days, N=3) is listed as “about 23 fold”. The “effect on caspase 8 activity (qualitative)” value ([1]; small molecule exposure, J774A.1 cells, FasL) was “increased caspase 8 activity”.

Reference: patent US20250242086A1, “THERAPEUTIC BIOMATERIAL THAT ATTENUATES THE FOREIGN BODY RESPONSE” (The Regents of the University of Colorado, a body corporate, priority 2022, published 2025)
